Measured values reported in patent publication US20240294551A1 (AMGEN INC., priority 2022, published 2024).
Like-named read-outs stand apart in the source and are kept apart here.

What was measured:
[1] = target: His-tagged KRAS G12D protein (Homo sapiens (Human), UniProt P01116, G12D); test: KRAS G12D TR-FRET Assay; type: binding
In short: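 His-tagged KRAS G12D (diluted to 20 nM in pH 7.4 HEPES buffer with 10 mM MgCl2 and 10 μM GDP) was preincubated with titrated compound for 30 min at room temperature. Biotinylated KRPep-2d peptide (diluted to 20 nM) was then added for 1 h, and displacement was monitored by TR-FRET.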

[2] = target: GDP-bound KRAS protein (aa 1-169), containing both G12D and C118A amino acid substitutions (Homo sapiens (Human), UniProt P01116, C118A/G12D); test: KRAS G12D Coupled Nucleotide Exchange Assay; type: biochemical
[3] = read-out: KRAS G12D Binding IC50
[4] = read-out: KRAS G12D Coupled Exchange IC50
[5] = TR-FRET, read-out: KRAS G12D Binding
[6] = 2 hours compound pre-incubation, read-out: KRAS G12D Coupled Exchange

Sequence of His-tagged KRAS G12D protein (P01116 other isoform, or with tags, fused parts or gaps G12D): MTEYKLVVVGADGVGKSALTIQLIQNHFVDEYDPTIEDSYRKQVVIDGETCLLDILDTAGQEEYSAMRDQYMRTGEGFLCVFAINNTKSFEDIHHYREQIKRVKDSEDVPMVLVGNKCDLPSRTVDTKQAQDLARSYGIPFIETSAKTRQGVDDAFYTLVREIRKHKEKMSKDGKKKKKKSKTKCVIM
Sequence of GDP-bound KRAS protein (aa 1-169), containing both G12D and C118A amino acid substitutions (P01116 other isoform, or with tags, fused parts or gaps G12D/C118A): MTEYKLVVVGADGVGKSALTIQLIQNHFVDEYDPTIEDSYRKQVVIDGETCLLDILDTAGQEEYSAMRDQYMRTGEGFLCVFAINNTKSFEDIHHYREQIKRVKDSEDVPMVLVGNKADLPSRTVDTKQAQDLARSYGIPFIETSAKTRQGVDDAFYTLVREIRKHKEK

Which IC50 [1, 3] does the source give for `Cc1cc2[nH]ncc2c2c1CCCCCC(=O)N[C@]1(C)CCCN(C1)c1nc(OC[C@@]34CCCN3C[C@H](F)C4)nc3c(F)c-2ncc13` [Example 21, (18R)-31-Fluoro-25-(((2R,7aS)-2-fluorotetrahydro-1H-pyrrolo[1,2-a]pyrrol-7a(5H)-yl)methoxy)-9,18-dimethyl-5,6,17,22,24,26,30-heptaazahexacyclo[25.3.1.1˜18,22˜0.0˜2,10˜0.0˜3,7˜0.0˜23,28˜]dotriaconta-1(31),2,4,7,9,23,25,27,29-nonaen-16-one] here?
The IC50 was 43 nM.

What about the IC50 [2, 4] of the same compound?
The IC50 was 43 nM.

With `Cc1c2ncc3c(nc(OCC(C)(C)O)nc13)N1CCC[C@](C)(C1)NC(=O)CCCc1c(F)ccc3cc(O)cc-2c13` [Example 26, (15R)-22-Fluoro-27-hydroxy-8-(2-hydroxy-2-methylpropoxy)-15,31-dimethyl-3,7,9,11,16-pentaazahexacyclo[19.7.1.1˜2,6˜.1˜11,15˜.0˜5,10˜.0˜25,29˜]hentriaconta-1(28),2(31),3,5,7,9,21,23,25(29),26-decaen-17-one] as the compound, how does the IC50 [1, 3] read?
Its IC50 is 124 nM.

What about the IC50 [2, 4] of the same compound?
Its IC50 is 109 nM.

With `O[C@H]1C[C@@H]2CN(C1)c1nc(OC[C@@]34CCCN3C[C@H](F)C4)nc3c(F)c(ncc13)-c1c(c(Cl)cc3[nH]ncc13)CCCc1nc2no1` [Example 378] as the compound, how does the IC50 [1, 5] read?
The IC50 was 34 nM.

And the IC50 [2, 6]?
Its IC50 is 15 nM.

Which results are given for `OC1c2ncc(o2)CCc2c(Cl)cc3[nH]ncc3c2-c2ncc3c(nc(OC[C@@]45CCCN4C[C@H](F)C5)nc3c2F)N2CCO[C@@H]1C2` (stereo in doubt) [Example 395, (17R,18R)-9-chloro-31-fluoro-25-(((2R,7aS)-2-fluorotetrahydro-1H-pyrrolo[1,2-a]pyrrol-7a(5H)-yl)methoxy)-19,33-dioxa-5,6,15,22,24,26,30-heptaazaheptacyclo[25.3.1.1~13,16~.1~18,22~.0~2,10~.0~3,7~.0~23,28~]tritriaconta-1(31),2,4,7,9,13,15,23,25,27,29-undecaen-17-ol]?
IC50 [1, 5]: 1170 nM; IC50 [2, 6]: 198 nM

`Cc1cc2[nH]ncc2c2c1CCCCCC(=O)O[C@@H]1CCCN(C1)c1nc(OC[C@@]34CCCN3C[C@H](F)C4)nc3c(F)c-2ncc13` [Example 34, (18R)-31-fluoro-25-(((2R,7aS)-2-fluorotetrahydro-1H-pyrrolo[1,2-a]pyrrol-7a(5H)-yl)methoxy)-9-methyl-17-oxa-5,6,22,24,26,30-hexaazahexacyclo[25.3.1.1~18,22~.0~2,10~.0~3,7~.0~23,28~]dotriaconta-1(31),2,4,7,9,23,25,27,29-nonaen-16-one] was tested. Which IC50 [1, 3] did it give?
Its IC50 is 220 nM.

And the IC50 [2, 4]?
The IC50 was 177 nM.

For `CN(C)CC1(COc2nc3c4cnc(c(F)c4n2)-c2c(c(Cl)cc4[nH]ncc24)CCCOC(=O)O[C@@]2(C)COCCN3C2)CC1` [Example 332, (26R)-18-chloro-4-((1-((dimethylamino)methyl)cyclopropyl)methoxy)-32-fluoro-26-methyl-23,25,28-trioxa-1,3,5,9,14,15-hexaazahexacyclo[24.4.1.1~6,10~.0~2,7~.0~11,19~.0~12,16~]dotriaconta-2,4,6,8,10(32),11,13,16,18-nonaen-24-one], which IC50 [1, 3] is on record?
Its IC50 is 3240 nM.

What about the IC50 [2, 4] of the same compound?
Its IC50 is 2110 nM.

Which results are given for `Cc1cc2[nH]ncc2c2c1CCCOC(=O)O[C@@]1(C)COCCN(C1)c1nc(OC[C@@H]3CCCN3C)nc3c(F)c-2ncc13` [Example 182, (26R)-32-fluoro-18,26-dimethyl-4-(((2S)-1-methyl-2-pyrrolidinyl)methoxy)-23,25,28-trioxa-1,3,5,9,14,15-hexaazahexacyclo[24.4.1.1~6,10~.0~2,7~.0~11,19~.0~12,16~]dotriaconta-2,4,6,8,10(32),11,13,16,18-nonaen-24-one]?
IC50 [1, 3]: 7570 nM; IC50 [2, 4]: 3620 nM

What does the source list for `Fc1c2ncc3c(nc(OC[C@@]45CCCN4C[C@H](F)C5)nc13)N1CCO[C@]3(C1)C[C@H](C3)OCCCCc1c(Cl)cc3[nH]ncc3c1-2` (single isomer, unassigned) [Example 262]?
IC50 [1, 3]: 3260 nM; IC50 [2, 4]: 2420 nM

How did the IC50 [1, 3] turn out when `CN1C(=O)CCCCc2c(Cl)cc3[nH]ncc3c2-c2ncc3c(nc(OC[C@@]45CCCN4C[C@H](F)C5)nc3c2F)N2CCOCC1C2` (mixture of isomers) [Example 64] was run?
Its IC50 is 98 nM.

And the IC50 [2, 4]?
The IC50 was 81 nM.

Which results are given for `Fc1c2ncc3c(nc(OC[C@@]45CCCN4C[C@H](F)C5)nc13)N1CCC[C@@H](C1)c1coc(n1)CCCc1c(Cl)cc3[nH]ncc3c1-2` [Example 245, (18S)-9-chloro-31-fluoro-25-(((2R,7aS)-2-fluorotetrahydro-1H-pyrrolo[1,2-a]pyrrol-7a(5H)-yl)methoxy)-15-oxa-5,6,22,24,26,30,33-heptaazaheptacyclo[25.3.1.1~14,17~.1~18,22~.0~2,10~.0~3,7~.0~23,28~]tritriaconta-1(31),2,4,7,9,14(33),16,23,25,27,29-undecaene]?
IC50 [1, 3]: 583 nM; IC50 [2, 4]: 344 nM

Which results are given for `O=C1OC[C@H]2C[C@H]2c2c(Cl)cc3[nH]ncc3c2-c2ncc3c(nc(OC[C@@]45CCCN4C[C@H](F)C5)nc3c2F)N2CCC[C@H](C2)O1` [Example 46, (11R,13S,18R)-9-chloro-31-fluoro-25-(((2R,7aS)-2-fluorotetrahydro-1H-pyrrolo[1,2-a]pyrrol-7a(5H)-yl)methoxy)-15,17-dioxa-5,6,22,24,26,30-hexaazaheptacyclo[25.3.1.1˜18,22˜.0˜2,10˜.0˜3,7˜.0˜11,13˜.0˜23,28˜]dotriaconta-1(31),2,4,7,9,23,25,27,29-nonaen-16-one bis(2,2,2-trifluoroacetate)]?
IC50 [1, 3]: 12 nM; IC50 [2, 4]: 10 nM

How did the IC50 [1, 3] turn out when `O=C1OCCCc2c(Cl)cc3[nH]ncc3c2-c2c(F)cc3c(nc(OC[C@@]45CCCN4C[C@H](F)C5)nc3c2F)N2CCOC[C@H](C2)O1` [Example 188, m-(26S)-18-chloro-9,32-difluoro-4-(((2R,7aS)-2-fluorotetrahydro-1H-pyrrolo[1,2-a]pyrrol-7a(5H)-yl)methoxy)-23,25,28-trioxa-1,3,5,14,15-pentaazahexacyclo[24.4.1.1~6,10~.0~2,7~.0~11,19~.0~12,16~]dotriaconta-2,4,6,8,10(32),11,13,16,18-nonaen-24-one] was run?
The IC50 was 71 nM.

And the IC50 [2, 4]?
Its IC50 is 44 nM.

How did the IC50 [1, 5] turn out when `O=C1CCCCc2c(Cl)cc3[nH]ncc3c2-c2ncc3c(nc(OC[C@@]45CCCN4C[C@H](F)C5)nc3c2F)N2CC[C@H]3[C@@H](C2)N1CC3(F)F` (single isomer, unassigned) [Example 402] was run?
The IC50 was 97 nM.

And the IC50 [2, 6]?
Its IC50 is 46 nM.

Which results are given for `O=C1N[C@@H]2CN(C[C@@H]3C[C@@H]32)c2nc(OC[C@@]34CCCN3C[C@H](F)C4)nc3c(F)c(ncc23)-c2c(c(Cl)cc3[nH]ncc23)CCC[C@H]1F` [Example 172, (23R,26S,27S,29R)-18-chloro-23,32-difluoro-4-(((2R,7aS)-2-fluorotetrahydro-1H-pyrrolo[1,2-a]pyrrol-7a(5H)-yl)methoxy)-1,3,5,9,14,15,25-heptaazaheptacyclo[24.4.1.1~6,10~.0~2,7~.0~11,19~.0~12,16~.0~27,29~]dotriaconta-2,4,6,8,10(32),11,13,16,18-nonaen-24-one]?
IC50 [1, 3]: 1770 nM; IC50 [2, 4]: 1030 nM

With `Fc1c2ncc3c(nc(OC[C@@]45CCCN4C[C@H](F)C5)nc13)N1CCO[C@@H](COCCOCc3c(Cl)cc4[nH]ncc4c3-2)C1` [Example 152, (17R)-9-chloro-30-fluoro-24-(((2R,7aS)-2-fluorotetrahydro-1H-pyrrolo[1,2-a]pyrrol-7a(5H)-yl)methoxy)-12,15,18-trioxa-5,6,21,23,25,29 hexaazahexacyclo[24.3.1.1~17,21~.0~2,10~.0~3,7~.0~22,27~]hentriaconta-1(30),2,4,7,9,22,24,26,28-nonaene] as the compound, how does the IC50 [1, 3] read?
Its IC50 is 71 nM.

What about the IC50 [2, 4] of the same compound?
Its IC50 is 56 nM.
